Laboratory results reported in PubChem BioAssay (NCI).
Values joined by “and” are separate entries in the source; they are usually repeats but may differ in a detail not shown here. Equal entries are not always repeated.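 Cultured in 96-well plates, cells were exposed to test compound for 48 hours across five concentrations. At the GI50, growth is halved. TGI is the concentration that stops growth completely.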

Experiments:
Test in all cases: NCI-60 cell line screen, 48 h
SN12C renal = test system: SN12C renal
786-0 renal = test system: 786-0 renal
SNB-19 CNS = test system: SNB-19 CNS
HL-60(TB) leukemia = test system: HL-60(TB) leukemia
UACC-62 melanoma = test system: UACC-62 melanoma
HS 578T breast = test system: HS 578T breast
OVCAR-3 ovarian = test system: OVCAR-3 ovarian
OVCAR-8 ovarian = test system: OVCAR-8 ovarian
K-562 leukemia = test system: K-562 leukemia
MOLT-4 leukemia = test system: MOLT-4 leukemia

SMILES | GI50 (SN12C renal) | TGI (SN12C renal) [µM] | GI50 (786-0 renal) | TGI (786-0 renal) | GI50 (SNB-19 CNS) [µM] | TGI (SNB-19 CNS) [µM] | GI50 (HL-60(TB) leukemia) | TGI (HL-60(TB) leukemia) [µM] | GI50 (UACC-62 melanoma) | TGI (UACC-62 melanoma) [µM] | GI50 (HS 578T breast) | TGI (HS 578T breast) | GI50 (OVCAR-3 ovarian) [µM] | TGI (OVCAR-3 ovarian) | GI50 (OVCAR-8 ovarian) [µM] | TGI (OVCAR-8 ovarian) [µM] | GI50 (K-562 leukemia) | TGI (K-562 leukemia) [µM] | GI50 (MOLT-4 leukemia) [µM] | TGI (MOLT-4 leukemia)
Cn1cccc1-c1cc(-c2ccc(Br)cc2)nc(N)c1C#N | > 100 µM | > 100 | > 100 µM | > 100 µM | > 100 | > 100 | 0.413 µM | > 100 | 33.3 µM | > 100 | > 100 µM | > 100 µM | > 100 | > 100 µM | > 100 | > 100 | > 100 µM | > 100 | > 100 | > 100 µM
O=C(/C=N/O)c1c(-c2ccccc2)[nH]c(-c2ccccc2)c1-c1ccccc1 | – | 35.2 | – | > 100 µM | – | 34.2 | – | > 100 | – | 28.7 | – | 85.2 µM | – | 58.7 µM | – | – | – | > 100 | – | 31.1 µM
Cc1nc2cc(O)c(O)cc2cc1Oc1ccc(NC(=O)Nc2ccc(Cl)c(Cl)c2)cc1 | 8.97 µM | 30.3 | 7.68 µM | 18.6 µM | 10.1 | > 32.5 | 9.02 µM | 22.4 | 5.67 µM | 11.2 | 12.8 µM | > 32.5 µM | 8.52 | 19.9 µM | 5.77 | > 32.5 | 6.93 µM | 29.6 | 8.87 | > 32.5 µM
Cn1c(=O)c(F)c(Nc2ccc(I)cc2F)c2c(=O)n(C[C@@H](O)CO)cnc21 | 3.91 µM and 0.487 µM | > 100 | 4.59 µM and 1.3 µM | 21.4 µM and > 4.58 µM | 4.73 | > 100 | < 0.01 µM and 0.00141 µM | 23.1 | < 0.01 µM and 0.00264 µM | – | 5.17 µM and 1.21 µM | 54.6 µM and > 3.97 µM | 13.6 | 40.4 µM and > 3.85 µM | 7.91 | > 100 | 0.172 µM and 0.112 µM | > 84 | 18.4 | 45.1 µM and > 4.74 µM
CCOC(=O)C(=Cc1ccccc1Br)C(=O)OCC | – | 15.6 | – | > 100 µM | – | 6.01 | – | 4 | – | 4.79 | – | 30.9 µM | – | 4.7 µM | – | 5.6 | – | 13.4 | – | 5.61 µM
CC(C)[C@]12O[C@H]1[C@@H]1O[C@]13[C@]1(O[C@H]1C[C@H]1c4c(C(=O)c5ccccc5)oc(OC(=O)c5ccccc5)c4CC[C@@]13C)[C@@H]2O | 0.0249 µM | 52.2 | 0.0352 µM | 5.22 µM | 0.176 | 36.6 | 0.023 µM | > 100 | 0.0134 µM | 0.0333 | 0.0303 µM | 0.996 µM | 0.0244 | 0.154 µM | 0.0494 | > 50.2 | 0.0219 µM | – | 0.0236 | > 31.6 µM
CC(O)CN(CCN(CC(C)O)CC(C)O)CC(C)O.O=[N+]([O-])O.[Cu+2] (stereo unspecified) | > 100 µM | > 100 | > 100 µM | > 100 µM | 30.5 | 74.5 | > 100 µM | > 100 | > 100 µM | > 100 | > 100 µM | > 100 µM | > 100 | > 100 µM | > 100 | > 100 | > 100 µM | > 100 | > 100 | > 100 µM
COC(=O)c1ccc2c(c1)nc(-c1ccc(Cl)cc1)n2-c1cc(C(C)(C)C)[nH]n1 | 4.34 µM | 27.7 | 3.62 µM | 32 µM | 4.31 | > 100 | 4.03 µM | 19 | 2.01 µM | 7.78 | 1.72 µM | 7.16 µM | 2.35 | 6.13 µM | 7.33 | 58.2 | 4.2 µM | > 100 | 5.48 | > 100 µM
COc1ccc(/C=C(/C(=O)N2CCNCC2)c2cc(OC)c(OC)c(OC)c2)cc1O | 7.86 µM | > 100 | 33.1 µM | > 100 µM | 3.91 | > 100 | 1.87 µM | 5.5 | 3.15 µM | > 100 | 2.42 µM | 30 µM | 2.45 | 7.1 µM | 5.64 | > 100 | 1.6 µM | > 100 | 3.94 | > 100 µM
CCOc1ccc2c(c1)/C(=C\C=C\C1CC(C)C3CC(OCC)CCC3N1CC)CC(C)N2CC (stereo unspecified) | 0.471 µM | 1.81 | 1.49 µM | 2.98 µM | 0.512 | 1.97 | 1.82 µM | 5.71 | 1.26 µM | 2.77 | 1.59 µM | 6.81 µM | 0.915 | 2.2 µM | 0.61 | 2.19 | 0.685 µM | 2.62 | 1.47 | 4.14 µM
O=C1c2cc3c(cc2-c2c1c1ccc([N+](=O)[O-])cc1c(=O)n2CCCCl)OCO3 | 0.0862 µM | 0.503 | 0.198 µM | > 100 µM | 0.138 | > 100 | 0.328 µM | > 28.8 | 0.176 µM | 2.5 | > 100 µM | > 100 µM | 4.8 | > 100 µM | > 100 | > 100 | – | > 100 | 0.0528 | > 100 µM
O=C1c2cccc3cccc(c23)C(=O)N1CCCCOc1ccc(-c2nc3ccc(N4CCOCC4)cc3[nH]2)cc1 | 5.56 µM | 12.1 | 1.28 µM | 2.68 µM | 7.91 | > 48.5 | 2.29 µM | 4.55 | 1.72 µM | 3.2 | 2.16 µM | 14.7 µM | 5.05 | 11.2 µM | 6.21 | > 75.1 | 3.25 µM | 9.47 | 2.95 | > 100 µM
COc1cc2c(/C=C3\C(=O)Nc4ccc(Br)cc43)c(Cl)n(C)c2cc1C | 3.05 µM | 11.4 | 0.998 µM | 3.94 µM | 2.57 | 48.8 | 3.09 µM | 16.9 | 0.618 µM | 12.9 | 0.517 µM | 3.46 µM | 1.56 | 3.56 µM | 5.12 | 20.3 | 1.96 µM | > 29.2 | 5.63 | > 27.5 µM
